Results from patent US20220380347A1, “INHIBITORS OF CYSTEINE PROTEASES AND METHODS OF USE THEREOF” (Pardes Biosciences, Inc., priority 2020, published 2022).
Like-named read-outs stand apart in the source and are kept apart here.

How the values were obtained:
[1] = system: HCov OC43; assay: HCoV OC43 cytopathic effect (CPE) assay, CellTiter Glo; format: cell-based, human coronavirus (HCov) OC43
[2] = target: COVID-19 (nCoV-2019, SARS-CoV2) Mpro (Severe acute respiratory syndrome coronavirus 2, UniProt P0DTD1); assay: COVID-19 (nCoV-2019, SARS-CoV2) Mpro enzymatic assay; format: biochemical; settings: 25 nM Mpro, 25 μM substrate; read-out: COVID-19 Mpro IC50
[3] = target: 229E Mpro (Human coronavirus 229E, UniProt P0C6X1); assay: 229E Mpro enzymatic assay (standard methods, SARS-CoV2 Mpro assay given as exemplary); format: biochemical, human coronavirus (HCov) 229E
How it was run: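 IC50 for 229E Mpro by standard methods; exemplary SARS-CoV-2 protocol used C-His6-tagged Mpro from E. coli, 25 nM enzyme, 25 μM substrate (Km 13.5 μM), in Tris-HCl pH 7.3, NaCl, EDTA, TCEP, 0.1% BSA. Inhibition normalised to no-compound and full-effect controls; four-parameter fit.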

[4] = Betacoronavirus 1, OC43, read-out: OC43 IC50 (uM) MEDIAN, median
[5] = read-out: OC43 IC50 (uM) MEDIAN, median

Sequence of 229E Mpro (P0C6X1 2966-3267): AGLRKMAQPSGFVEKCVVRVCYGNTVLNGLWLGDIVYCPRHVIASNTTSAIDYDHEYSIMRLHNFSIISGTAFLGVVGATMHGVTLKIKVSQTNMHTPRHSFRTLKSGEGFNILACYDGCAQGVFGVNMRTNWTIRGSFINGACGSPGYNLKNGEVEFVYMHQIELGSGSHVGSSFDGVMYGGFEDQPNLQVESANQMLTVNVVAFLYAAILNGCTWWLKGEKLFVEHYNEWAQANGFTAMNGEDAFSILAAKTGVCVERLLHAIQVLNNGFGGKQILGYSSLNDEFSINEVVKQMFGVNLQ

Row | SMILES | IC50 [1, 4] [µM] | IC50 [2] [µM] | EC50 ([3]; 229E Mpro EC50) [µM] | IC50 ([1]; read-out: OC43 IC50 (uM) MEDIAN, median, listed as 1160 Isomer 2) [µM] | IC50 [1, 5] [µM] | EC50 ([3]; read-out: 229E Mpro EC50) [µM]
1 | N#CC1(Nc2ccc(S(F)(F)(F)(F)F)cc2)CCCc2ccncc21 (stereo not drawn) [Compound 690b] | > 30 | > 30 | > 30 |  |  | 
2 | CO[C@@H]1C[C@H](C(=O)N(c2ccc(S(F)(F)(F)(F)F)cc2)C(C(=O)NC(C)C2CCCCN2)c2cccnc2)N(C#N)C1 (stereo partly drawn) [Compound 1123, (2R,4R)-1-cyano-4-methoxy-N-[2-oxo-2-[1-(2-piperidyl)ethylamino]-1-(3-pyridyl)ethyl]-N-[4-(pentafluoro-λ^6-sulfanyl)phenyl]pyrrolidine-2-carboxamide] | < 2 | < 2 | < 2 |  |  | 
3 | CC(C)(C)OC(=O)N1CCN(C(=O)C(c2cccnc2)N(C(=O)[C@H]2CCCN2C#N)c2ccc(C(C)(C)C)cc2)CC1 (stereo partly drawn) [Compound 954b] | 2 to 10 | 2 to 10 | 2 to 10 |  |  | 
4 | N#CN1CC(=O)NCC1C(=O)N(c1ccc(S(F)(F)(F)(F)F)cc1)C(C(=O)NC1CCC(F)(F)CC1)c1cncc(F)c1 (single isomer, unassigned) [Compound 1160 Isomer 2, 1-cyano-N-[2-[(4,4-difluorocyclohexyl)amino]-1-(5-fluoro-3-pyridyl)-2-oxo-ethyl]-5-oxo-N-[4-(pentafluoro-λ6-sulfanyl)phenyl]piperazine-2-carboxamide] |  | 2 to 10 | 2 to 10 | 2 to 10 |  | 
5 | CC(C)(C)c1ccc(N(C(=O)[C@H]2C[C@@](C)(O)CN2C#N)C(C(=O)NC2CCC(F)(F)CC2)c2cnccn2)cc1 (stereo partly drawn) [Compound 1326, (2R,4R)—N-(4-(tert-butyl)phenyl)-1-cyano-N-(2-((4,4-difluorocyclohexyl)amino)-2-oxo-1-(pyrazin-2-yl)ethyl)-4-hydroxy-4-methylpyrrolidine-2-carboxamide] | < 2 | < 2 | < 2 |  |  | 
6 | CO[C@@H]1C[C@H](C(=O)N(c2ccc(S(F)(F)(F)(F)F)cc2)C(C(=O)NC2CCC(F)(F)CC2)c2cncc(F)c2)N(C#N)C1 (single isomer, unassigned) [1265 Isomer 2] |  | < 2 |  |  | < 2 | < 2
7 | CC1(C)CN(C#N)[C@@H](C(=O)N(c2ccc(C(C)(C)C)cc2)C(C(=O)NC2CCOCC2)c2cccnc2)CO1 (single isomer, unassigned) [1141 Isomer 4] |  | 10 to 30 | < 2 |  | 10 to 30 | 
8 | CC(C)(C)OC(=O)NC1CCN(C(=O)C(c2cccnc2)N(C(=O)[C@H]2CCCN2C#N)c2ccc(C(C)(C)C)cc2)CC1 (stereo partly drawn) [Compound 966b] | 10 to 30 | 10 to 30 | 2 to 10 |  |  | 
9 | CC(C)(C)c1ccc(N(C(=O)[C@H]2C[C@@H](O)CN2C#N)C(C(=O)NC2CCCCC2)c2cccnc2)c(Cl)c1 (stereo partly drawn) [Compound 775, (2R,4R)—N-(4-(tert-butyl)-2-chlorophenyl)-1-cyano-N-(2-(cyclohexylamino)-2-oxo-1-(pyridin-3-yl)ethyl)-4-hydroxypyrrolidine-2-carboxamide] | > 30 | 10 to 30 | 2 to 10 |  |  | 
10 | CC1(C)CCN(C#N)[C@H]1C(=O)N(c1ccc(S(F)(F)(F)(F)F)cc1)C(C(=O)NC1CCC(F)(F)CC1)c1cncc(F)c1 (single isomer, unassigned) [1094 Isomer 2] |  | 10 to 30 | 2 to 10 |  | 10 to 30 | 
11 | CC(C(=O)NC1CCC(F)(F)CC1)(c1cccnc1)N(C(=O)[C@H]1[C@@H]2C[C@@H]2CN1C#N)c1ccc(S(F)(F)(F)(F)F)cc1 (single isomer, unassigned) [Compound 1251 Isomer 1] | 2 to 10 | 2 to 10 |  |  |  | < 2
12 | N#CN1C[C@@H]2C[C@@H]2[C@@H]1C(=O)N(c1ccc(S(F)(F)(F)(F)F)cc1)C(C(=O)NC1CCC(F)(F)CC1)c1cncc(F)c1 (single isomer, unassigned) [1096 Isomer 1] | 2 to 10 | 2 to 10 | < 2 |  |  | 
13 | N#CN1C[C@H]2C[C@H]2[C@@H]1C(=O)N(c1ccc(S(F)(F)(F)(F)F)cc1)C(C(=O)NC1CCC(F)(F)CC1)c1cnccc1C(F)(F)F (single isomer, unassigned) [Compound 1318 Isomer 1] | < 2 | < 2 | < 2 |  |  | 
